Measured values reported in ChEMBL document CHEMBL4052802, “Design, synthesis and biological evaluation of novel 3-oxo-4-oxa-5α-androst-17β-amide derivatives as dual 5α-reductase inhibitors and androgen receptor antagonists” (Bioorg Med Chem Lett, 2017).
pIC50: −log10 of the molar value.

Legend:
LNCaP [1] = test: Cytotoxicity against human LNCAP cells after 48 hrs by MTT assay; assay type: functional, cell-based
[2] = molecular target: Androgen receptor (Homo sapiens) (UniProt P10275); test: Inhibition of recombinant human His-tagged/GST-fused androgen receptor LBD expressed in baculovirus expression system at 50 uM measured after 1.5 hrs by fluorescence polarization assay relative to control
PC-3 [3] = test: Cytotoxicity against human PC3 cells after 48 hrs by MTT assay; assay type: functional, cell-based; conditions: PC-3, 48 h
PC-3 [4] = test: Growth inhibition of human PC3 cells at 80 uM after 48 hrs by MTT assay relative to control; assay type: functional; conditions: PC-3, 48 h, read-out: GI
LNCaP [5] = test: Growth inhibition of human LNCAP cells at 80 uM after 48 hrs by MTT assay relative to control; assay type: functional; conditions: read-out: GI
Rattus norvegicus = organism: Rattus norvegicus; test: Inhibition of rat liver 5alpha-reductase at 50 uM using testosterone as substrate incubated for 30 mins measured for 10 mins by fluorescence assay relative to control
[6] = Inhibition of rat liver 5alpha-reductase using testosterone as substrate incubated for 30 mins measured for 10 mins by fluorescence assay
Plasma [7] = test: Drug uptake in Sprague-Dawley rat plasma at 0.2 mg/kg, po after 6 hrs by LC-MS/MS analysis; assay type: ADME, organism-based; conditions: in vivo
Androgen receptor [8] = molecular target: T1, Androgen receptor (Rattus norvegicus, UniProt P15207); test: Displacement of fluormone-AL Green from recombinant rat His-tagged/GST-fused androgen receptor LBD expressed in baculovirus expression system measured after 1.5 hrs by fluorescence polarization assay
T1 sequence (P15207 whole entry): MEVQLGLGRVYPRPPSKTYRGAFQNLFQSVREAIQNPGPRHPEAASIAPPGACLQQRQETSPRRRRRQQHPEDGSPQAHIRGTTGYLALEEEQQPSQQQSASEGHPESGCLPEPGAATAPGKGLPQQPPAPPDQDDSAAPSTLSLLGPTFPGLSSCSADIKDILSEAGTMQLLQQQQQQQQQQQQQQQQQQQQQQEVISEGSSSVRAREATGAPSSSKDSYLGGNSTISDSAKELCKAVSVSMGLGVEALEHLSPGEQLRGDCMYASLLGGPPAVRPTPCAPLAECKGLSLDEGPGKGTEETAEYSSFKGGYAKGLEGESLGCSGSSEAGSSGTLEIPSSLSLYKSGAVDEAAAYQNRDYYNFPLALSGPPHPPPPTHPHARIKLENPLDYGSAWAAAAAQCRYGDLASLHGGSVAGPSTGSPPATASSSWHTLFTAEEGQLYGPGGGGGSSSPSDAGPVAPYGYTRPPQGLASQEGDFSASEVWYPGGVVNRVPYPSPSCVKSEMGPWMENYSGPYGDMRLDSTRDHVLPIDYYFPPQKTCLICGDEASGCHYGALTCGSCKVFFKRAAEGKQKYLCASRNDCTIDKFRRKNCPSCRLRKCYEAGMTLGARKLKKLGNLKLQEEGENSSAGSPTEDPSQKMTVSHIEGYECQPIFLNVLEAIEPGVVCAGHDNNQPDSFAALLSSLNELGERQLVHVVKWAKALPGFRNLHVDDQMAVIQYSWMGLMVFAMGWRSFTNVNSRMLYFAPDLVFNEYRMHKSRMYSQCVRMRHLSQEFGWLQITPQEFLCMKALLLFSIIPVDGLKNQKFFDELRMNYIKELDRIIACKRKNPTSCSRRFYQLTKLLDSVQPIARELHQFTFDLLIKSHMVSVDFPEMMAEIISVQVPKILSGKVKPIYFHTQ

[9] = Cmax in Sprague-Dawley rat at 0.2 mg/kg, po by LC-MS/MS analysis; assay type: ADME, organism-based; parameters: dose 0.2 mg/kg, route oral; conditions: in vivo
[10] = Elimination half-life in Sprague-Dawley rat at 0.2 mg/kg, po by LC-MS/MS analysis; assay type: ADME, organism-based; conditions: in vivo, read-out: beta t1/2 (converted)
[11] = Tmax in Sprague-Dawley rat at 0.2 mg/kg, po by LC-MS/MS analysis; assay type: ADME, organism-based; conditions: in vivo
Plasma [12] = test: Retention time in Sprague-Dawley rat plasma at 0.2 mg/kg, po measured after 24 hrs by total ion chromatographic method; assay type: ADME, organism-based; conditions: in vivo
[13] = AUC (0 to infinity) in Sprague-Dawley rat at 0.2 mg/kg, po by LC-MS/MS analysis; assay type: ADME, organism-based; parameters: dose 0.2 mg/kg, route oral, time infinity; conditions: in vivo
[14] = Selectivity ratio of IC50 for human PC3 cells to IC50 for human LNCAP cells; assay type: functional
[15] = AUC (0 to t) in Sprague-Dawley rat at 0.2 mg/kg, po by LC-MS/MS analysis; assay type: ADME, organism-based; conditions: in vivo
Androgen receptor [16] = molecular target: T2, Androgen receptor (Homo sapiens, UniProt P10275); test: Displacement of [3H]-DHT from recombinant human androgen receptor expressed in CHO cells; assay type: cell-based
T2 sequence (P10275 whole entry): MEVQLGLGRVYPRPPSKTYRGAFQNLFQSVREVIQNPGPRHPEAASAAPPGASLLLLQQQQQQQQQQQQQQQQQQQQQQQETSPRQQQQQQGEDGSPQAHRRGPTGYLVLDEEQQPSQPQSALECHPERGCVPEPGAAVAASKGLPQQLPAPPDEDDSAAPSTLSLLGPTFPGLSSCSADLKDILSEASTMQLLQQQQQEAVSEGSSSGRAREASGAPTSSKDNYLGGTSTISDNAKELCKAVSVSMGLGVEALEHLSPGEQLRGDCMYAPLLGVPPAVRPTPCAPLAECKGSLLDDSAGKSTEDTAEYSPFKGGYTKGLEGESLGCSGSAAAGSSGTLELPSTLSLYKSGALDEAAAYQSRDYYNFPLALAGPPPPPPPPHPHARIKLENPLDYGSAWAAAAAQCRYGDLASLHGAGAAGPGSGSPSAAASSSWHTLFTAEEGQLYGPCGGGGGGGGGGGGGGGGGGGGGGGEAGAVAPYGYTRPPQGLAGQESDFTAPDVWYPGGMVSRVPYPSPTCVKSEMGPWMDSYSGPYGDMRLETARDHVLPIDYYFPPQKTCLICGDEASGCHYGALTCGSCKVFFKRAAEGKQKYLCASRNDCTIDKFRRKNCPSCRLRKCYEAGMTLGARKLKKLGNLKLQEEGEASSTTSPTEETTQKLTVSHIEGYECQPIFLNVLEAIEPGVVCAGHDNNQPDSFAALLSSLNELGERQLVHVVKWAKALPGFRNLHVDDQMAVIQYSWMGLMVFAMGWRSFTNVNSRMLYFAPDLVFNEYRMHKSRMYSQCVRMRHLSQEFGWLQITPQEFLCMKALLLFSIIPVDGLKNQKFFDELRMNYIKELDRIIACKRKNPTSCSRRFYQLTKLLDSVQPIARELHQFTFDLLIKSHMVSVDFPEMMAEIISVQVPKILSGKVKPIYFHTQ

[17] = molecular target: T3, 3-oxo-5-alpha-steroid 4-dehydrogenase 1 (Homo sapiens, UniProt P18405); test: Inhibition of recombinant human 5alpha-reductase type1 expressed in baculovirus expression system using [7-3H]T as substrate pretreated for 18 hrs followed by substrate addition measured after 90 mins by reverse-phase HPLC method
T3 sequence (P18405 whole entry): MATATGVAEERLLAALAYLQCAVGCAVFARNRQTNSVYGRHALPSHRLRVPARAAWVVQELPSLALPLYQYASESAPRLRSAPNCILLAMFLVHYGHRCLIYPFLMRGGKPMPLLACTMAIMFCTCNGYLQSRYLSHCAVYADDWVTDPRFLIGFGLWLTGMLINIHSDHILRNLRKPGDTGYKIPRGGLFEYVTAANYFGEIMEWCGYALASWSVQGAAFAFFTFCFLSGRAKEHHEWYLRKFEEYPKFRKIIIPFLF

[18] = molecular target: T4, 3-oxo-5-alpha-steroid 4-dehydrogenase 2 (Homo sapiens, UniProt P31213); test: Inhibition of recombinant human 5alpha-reductase type2 expressed in baculovirus expression system using [7-3H]T as substrate pretreated for 18 hrs followed by substrate addition by reverse-phase HPLC method
T4 sequence (P31213 whole entry): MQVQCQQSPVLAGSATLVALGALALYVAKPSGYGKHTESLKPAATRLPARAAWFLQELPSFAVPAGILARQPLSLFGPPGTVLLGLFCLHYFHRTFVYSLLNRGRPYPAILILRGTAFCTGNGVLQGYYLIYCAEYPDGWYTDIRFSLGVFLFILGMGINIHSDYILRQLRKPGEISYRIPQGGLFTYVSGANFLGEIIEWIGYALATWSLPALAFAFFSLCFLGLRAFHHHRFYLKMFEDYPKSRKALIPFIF

| Compound | inhibition [2] | pIC50 (PC-3 [3]) | inhibition of growth at 80 µM (PC-3 [4]) | inhibition of growth at 80 µM (LNCaP [5]) | inhibition (Rattus norvegicus) | also measured |
| --- | --- | --- | --- | --- | --- | --- |
| CCCCN(CCCC)C(=O)[C@H]1CC[C@H]2[C@@H]3CC[C@H]4OC(=O)CC[C@]4(C)[C@H]3CC[C@]12C | 11.8% | 4.40 | 89.9% | 88.9% | 36.5% | pIC50 (LNCaP [1]): 4.49 |
| CN(C(=O)[C@H]1CC[C@H]2[C@@H]3CC[C@H]4OC(=O)CC[C@]4(C)[C@H]3CC[C@]12C)c1ccccc1 | 14.3% | 4.21 | 35.1% | 30% | 84.2% | pIC50 [6]: 6.05 |
| C[C@]12CCC(=O)O[C@@H]1CC[C@@H]1[C@@H]2CC[C@]2(C)[C@@H](C(=O)N(c3ccccc3)c3ccccc3)CC[C@@H]12 | 3.29% | 4.12 | 35.4% | 31.4% | 15.5% | – |
| Cc1ccc(NC(=O)[C@H]2CC[C@H]3[C@@H]4CC[C@H]5OC(=O)CC[C@]5(C)[C@H]4CC[C@]23C)cc1 | 55.5% | 3.94 | 18.1% | 82.3% | 98.5% | pIC50 (LNCaP [1]): 4.58; Drug uptake (Plasma [7]): Not Active; pIC50 (Androgen receptor [8]): 4.32; Cmax [9]: 6.89 ng/mL; half-life [10]: 4.74 h; Tmax [11]: 3.83 h; Retention_time (Plasma [12]): 3.6 min; AUC(0-inf) [13]: 0.0541 µg·h/mL; Ratio IC50 [14]: 4; AUC(0-t) [15]: 0.0525 µg·h/mL; pIC50 [6]: 6.57 |
| C[C@]12CCC(=O)O[C@@H]1CC[C@@H]1[C@@H]2CC[C@]2(C)[C@@H](C(=O)Nc3ccccc3)CC[C@@H]12 | 7.09% | 4.06 | 31.7% | 24.2% | 67.3% | – |
| C[C@]12CCC(=O)O[C@@H]1CC[C@@H]1[C@@H]2CC[C@]2(C)[C@@H](C(=O)N(C3CCCCC3)C3CCCCC3)CC[C@@H]12 | 11.3% | 4.13 | 32% | 13.8% | 33.4% | – |
| C[C@H]1CC(=O)C[C@@H]2CC[C@H]3[C@@H]4CC[C@H](O)[C@@]4(C)CC[C@@H]3[C@]21C [MESTEROLONE] | – | – | – | – | – | pIC50 (Androgen receptor [8]): 4.74 |
| C[C@]12CCC(=O)O[C@@H]1CC[C@@H]1[C@@H]2CC[C@]2(C)[C@@H](C(=O)N3CCCCC3)CC[C@@H]12 | 17.4% | 4.07 | 26.2% | 12.3% | 89.3% | pIC50 [6]: 5.22 |
| C[C@]12CCC(=O)N[C@@H]1CC[C@@H]1[C@@H]2CC[C@]2(C)[C@@H](C(=O)Nc3ccccc3)CC[C@@H]12 | – | – | – | – | – | pIC50 (Androgen receptor [16]): 4.64; pIC50 [17]: 6.39; pIC50 [18]: 7.82 |
| CC(C)(C)NC(=O)[C@H]1CC[C@H]2[C@@H]3CC[C@H]4OC(=O)CC[C@]4(C)[C@H]3CC[C@]12C | 3.73% | 4.15 | 28.1% | 37.3% | 48.3% | – |
| C[C@]12CCC(=O)O[C@@H]1CC[C@@H]1[C@@H]2CC[C@]2(C)[C@@H](C(=O)N(Cc3ccccc3)Cc3ccccc3)CC[C@@H]12 | 57.1% | 3.90 | 12.9% | 81.8% | 69.8% | pIC50 (LNCaP [1]): 4.53; pIC50 (Androgen receptor [8]): 4.77; Ratio IC50 [14]: 4 |
| CCN(CC)C(=O)[C@H]1CC[C@H]2[C@@H]3CC[C@H]4OC(=O)CC[C@]4(C)[C@H]3CC[C@]12C | 33.7% | 4.17 | 27.9% | 42.7% | 39.5% | – |
| CC(C)(C)NC(=O)[C@H]1CC[C@H]2[C@@H]3CC[C@H]4NC(=O)C=C[C@]4(C)[C@H]3CC[C@]12C [FINASTERIDE] | – | < 4.10 | 0.4% | – | 94.3% | Cmax [9]: 4.19 ng/mL; half-life [10]: 3.91 h; Tmax [11]: 2.67 h; Retention_time (Plasma [12]): 3.5 min; AUC(0-inf) [13]: 0.0238 µg·h/mL; AUC(0-t) [15]: 0.0235 µg·h/mL; pIC50 [6]: 6.23 |
| C[C@]12CCC(=O)O[C@@H]1CC[C@@H]1[C@@H]2CC[C@]2(C)[C@@H](C(=O)Nc3ccc(F)cc3)CC[C@@H]12 | 18.9% | 4.30 | 46.3% | 39.7% | 46.9% | – |
| CC(C)C(=O)Nc1ccc([N+](=O)[O-])c(C(F)(F)F)c1 [FLUTAMIDE] | – | 4.17 | 21.2% | 63% | – | pIC50 (LNCaP [1]): 4.32 |
